Results: US8012961B2, “Tricyclic antibiotics” (Actelion Pharmaceutical Ltd., priority 2008, dated 2011)
Converted amounts (≈) assume the structure as drawn.

The molecules below were run on M. catarrhalis A894 (assay: MIC determination by microdilution in cation-adjusted Mueller-Hinton Broth (NCCLS)). Details: Moraxella catarrhalis, A894, microdilution method, pH of the test medium 7.2-7.3.
Format: cell-based
Method: These assays have been performed following the description given in “Methods for dilution Antimicrobial Susceptibility Tests for Bacteria that Grow Aerobically, 4th ed.; Approved standard: NCCLS Document M7-A4; National Committee for Clinical Laboratory Standards: Villanova, Pa., USA, 1997”. Minimal inhibitory concentrations (MICs; mg/l) were determined in cation-adjusted Mueller-Hinton Broth by a microdilution method following NCCLS guidelines (National Committee for Clinical Laboratory Standards. Methods for Dilution Antimicrobial Susceptibility). The pH of the test medium was 7.2-7.3. All Example compounds were tested against several Gram positive and Gram negative bacteria such as S. aureus, E. faecalis, S. pneumoniae, M. catarrhalis or E.coli.
In the case of `COc1ccc2ncc3c(c2n1)C(CN1CCC(NCc2cc4c(cn2)OCCO4)CC1)CO3` (racemic) [Example 9, rac-(2,3-dihydro-[1,4]dioxino[2,3-c]pyridin-7-ylmethyl)-[1-(8-methoxy-1,2-dihydro-3-oxa-5,9-diaza-cyclopenta[a]naphthalen-1-ylmethyl)-piperidin-4-yl]-amine], the MIC is reported as at most 0.031 µg/mL. In the case of `COc1ccc2ncc3c(c2n1)C(CN1CC[C@@H](CNCc2cc4c(cn2)OCCO4)C1)CO3` (mixture of isomers) [Example 12, (2,3-dihydro-[1,4]dioxino[2,3-c]pyridin-7-ylmethyl) -[(3S)-1-((1RS)-8-methoxy-1,2-dihydro-3-oxa-5,9-diaza-cyclopenta[a]naphthalen-1-ylmethyl)-pyrrolidin-3-ylmethyl]-amine], the MIC is reported as at most 0.031 µg/mL. `COc1ccc2ncc3c(c2n1)[C@H](CN1CCC(NCc2ccc4c(n2)NC(=O)CS4)CC1)CO3` (single isomer, unassigned) [Example 16A] was tested, and the MIC was at most 0.031 µg/mL. For `COc1ccc2ncc3c(c2n1)C(CN1CCC[C@@H](CNCc2ccc4c(c2)NC(=O)CO4)C1)CO3` (mixture of isomers) [Example 31, 6-({[(3S)-1-((1RS)-8-methoxy-1,2-dihydro-3-oxa-5,9-diaza-cyclopenta[a]naphthalen-1-ylmethyl)-piperidin-3-ylmethyl]-amino}-methyl)-4H-benzo[1,4]oxazin-3-one], the MIC was at most 0.031 µg/mL. `COc1ccc2ncc3c(c2n1)[C@@H](CN1CCC(NCc2cc4c(cn2)OCCO4)C(CO)C1)CO3` (stereo partly drawn) [Example 40, [4-[(2,3-dihydro-[1,4]dioxino[2,3-c]pyridin-7-ylmethyl)-amino]-1-((S)-8-methoxy-1,2-dihydro-3-oxa-5,9-diaza-cyclopenta[a]naphthalen-1-ylmethyl)-piperidin-3-yl]-methanol] showed an MIC of at most 0.031 µg/mL. In the case of `COc1ccc2ncc3c(c2n1)C(CN1CC[C@@H](CNC/C=C/c2cc(F)ccc2F)C1)CO3` (mixture of isomers) [Example 13, [(E)-3-(2,5-difluoro-phenyl)-allyl]-[(3S)-1-((1RS)-8-methoxy-1,2-dihydro-3-oxa-5,9-diaza-cyclopenta[a]naphthalen-1-ylmethyl)-pyrrolidin-3-ylmethyl]-amine], the MIC is reported as at most 0.031 µg/mL. With `COc1ccc2ncc3c(c2n1)C(CN1CCC(NCc2ccc4c(n2)NC(=O)CS4)CC1)CO3` (racemic) [Example 7, rac-6-{[1-(8-methoxy-1,2-dihydro-3-oxa-5,9-diaza-cyclopenta[a]naphthalen-1-ylmethyl)-piperidin-4-ylamino]-methyl}-4H-pyrido[3,2-b][1,4]thiazin-3-one] the MIC was at most 0.031 µg/mL. `COc1ccc2ncc3c(c2n1)C(CN1CCC(NCc2cc4c(nn2)OCCO4)CC1)CO3` (racemic) [Example 8, rac-(6,7-dihydro-[1,4]dioxino[2,3-c]pyridazin-3-ylmethyl)-[1-(8-methoxy-1,2-dihydro-3-oxa-5,9-diaza-cyclopenta[a]naphthalen-1-ylmethyl) -piperidin-4-yl]-amine] showed an MIC of at most 0.031 µg/mL. Molecule `COc1ccc2ccc3c(c2n1)C(CN1CCC(NCc2ccc4c(n2)NC(=O)CS4)CC1)CO3` (racemic) [Example 4, rac-6-{[1-(2-methoxy-8,9-dihydro-furo[2,3-h]quinolin-9-ylmethyl) -piperidin-4-ylamino]-methyl}-4H-pyrido[3,2-b][1,4]thiazin-3-one] has an MIC of at most 0.031 µg/mL. Molecule `COc1ccc2ccc3c(c2n1)C(CN1CCC(NCc2ccc4c(c2)NC(=O)CO4)CC1)CO3` (racemic) [Example 15, rac-6-{[1-(2-methoxy-8,9-dihydro-furo[2,3-h]quinolin-9-ylmethyl) -piperidin-4-ylamino]-methyl}-4H-benzo[1,4]oxazin-3-one] has an MIC of at most 0.031 µg/mL. With `COc1ccc2ncc3c(c2n1)C(CN1CC[C@H](NCc2ccc4c(n2)NC(=O)CO4)[C@H](CO)C1)CO3` (relative stereo) [Example 37, 6-{(3R*,4S*)-[3-hydroxymethyl-1-((1RS)-8-methoxy-1,2-dihydro-3-oxa-5,9-diaza-cyclopenta[a]naphthalen-1-ylmethyl)-piperidin-4-ylamino]-methyl}-4H-pyrido[3,2-b][1,4]oxazin-3-one] the MIC was at most 0.031 µg/mL. For `COc1ccc2ncc3c(c2n1)C(CN1CC[C@@H](NCc2cc4c(cn2)OCCO4)[C@@H](F)C1)CO3` (relative stereo) [Example 19, (2,3-dihydro-[1,4]dioxino[2,3-c]pyridin-7-ylmethyl)-[(3S*,4R*)-3-fluoro-1-((1RS)-8-methoxy-1,2-dihydro-3-oxa-5,9-diaza-cyclopenta[a]naphthalen-1-ylmethyl) -piperidin-4-yl]-amine], the MIC was at most 0.031 µg/mL. For `COc1ccc2ncc3c(c2n1)C(CN1CCC(NCc2ccc4c(c2)OCCO4)CC1)CO3` (racemic) [Example 10, rac-(2,3-dihydro-benzo[1,4]dioxin-6-ylmethyl)-[1-(8-methoxy-1,2-dihydro-3-oxa-5,9-diaza-cyclopenta[a]naphthalen-1-ylmethyl)-piperidin-4-yl]-amine], the MIC was at most 0.031 µg/mL. `COc1ccc2ncc3c(c2n1)C(CN1CCO[C@@H](CNCc2cc4c(cn2)OCCO4)C1)CO3` (mixture of isomers) [Example 26, (2,3-dihydro-[1,4]dioxino[2,3-c]pyridin-7-ylmethyl) -[(2S)-4-((1RS)-8-methoxy-1,2-dihydro-3-oxa-5,9-diaza-cyclopenta[a]naphthalen-1-ylmethyl)-morpholin-2-ylmethyl]-amine] gave an MIC of at most 0.031 µg/mL. `COc1ccc2ncc3c(c2n1)[C@@H](CN1CCC(NCc2ccc4c(n2)NC(=O)CS4)CC1)CO3` (single isomer, unassigned) [Example 16B] showed an MIC of at most 0.031 µg/mL. `COc1ccc2ncc3c(c2n1)C(CN1CC[C@H](NCc2ccc4c(n2)NC(=O)CS4)[C@H](CO)C1)CO3` (relative stereo) [Example 36, 6-{(3R*,4S*)-[3-hydroxymethyl-1-((1RS)-8-methoxy-1,2-dihydro-3-oxa-5,9-diaza-cyclopenta[a]naphthalen-1-ylmethyl)-piperidin-4-ylamino]-methyl}-4H-pyrido[3,2-b][1,4]thiazin-3-one] gave an MIC of at most 0.031 µg/mL. `COc1ccc2ccc3c(c2n1)C(CN1CCC(NCc2cc4c(nn2)OCCO4)CC1)CO3` (racemic) [Example 3, rac-(6,7-dihydro-[1,4]dioxino[2,3-c]pyridazin-3-ylmethyl)-[1-(2-methoxy-8,9-dihydro-furo[2,3-h]quinolin-9-ylmethyl)-piperidin-4-yl]-amine] was tested, and the MIC was at most 0.031 µg/mL. `COc1ccc2ncc3c(c2n1)C(CN1CC[C@H](NCc2cc4c(nn2)OCCO4)[C@H](CO)C1)CO3` (relative stereo) [Example 38, (3R*,4S*)-[4-[(6,7-dihydro-[1,4]dioxino[2,3-c]pyridazin-3-ylmethyl)-amino]-1-((1RS)-8-methoxy-1,2-dihydro-3-oxa-5,9-diaza-cyclopenta[a]naphthalen-1-ylmethyl)-piperidin-3-yl]-methanol] showed an MIC of 0.063 µg/mL (≈ 0.127 µM).

Same assay, conditions: microdilution method, pH of the test medium 7.2-7.3
`COc1ccc2ncc3c(c2n1)C(CN1CCC[C@@H](CNCc2ccc4c(n2)NC(=O)CO4)C1)CO3` (mixture of isomers) [Example 27] was tested, and the “MIC M. catarrhalis A894” value was “≦0.031 mg/l”. For `COc1ccc2ncc3c(c2n1)C(CN1C2CCC1CC(NC/C=C/c1cc(F)ccc1F)C2)CO3` (racemic) [Example 21, [(E)-3-(2,5-difluoro-phenyl)-allyl]-[(3-exo)-8-((1RS)-8-methoxy-1,2-dihydro-3-oxa-5,9-diaza-cyclopenta[a]naphthalen-1-ylmethyl)-8-aza-bicyclo[3.2.1]oct-3-yl]-amine], the “MIC M. catarrhalis A894” value was “≦0.031 mg/l”. In the case of `COc1ccc2ncc3c(c2n1)C(CN1C2CCC1CC(NCc1ccc4c(n1)NC(=O)CO4)C2)CO3` (racemic) [Example 22, 6-{[(3-exo)-8-((1RS)-8-methoxy-1,2-dihydro-3-oxa-5,9-diaza-cyclopenta[a]naphthalen-1-ylmethyl)-8-aza-bicyclo[3.2.1]oct-3-ylamino]-methyl}-4H-pyrido[3,2-b][1,4]oxazin-3-one], the “MIC M. catarrhalis A894” value is reported as “≦0.031 mg/l”. With `COc1ccc2ncc3c(c2n1)C(CN1CCC[C@@H](CNCc2cc4c(cn2)OCCO4)C1)CO3` (mixture of isomers) [Example 29] the “MIC M. catarrhalis A894” value was “≦0.031 mg/l”. In the case of `COc1ccc2ncc3c(c2n1)C(CN1CC2C(C1)C2NCc1ccc2c(n1)NC(=O)CO2)CO3` (racemic) [Example 32, 6-{[(1α,5α,6α)-3-((1RS)-8-methoxy-1,2-dihydro-3-oxa-5,9-diaza-cyclopenta[a]naphthalen-1-ylmethyl)-3-aza-bicyclo[3.1.0]hex-6-ylamino]-methyl}-4H-pyrido[3,2-b][1,4]oxazin-3-one], the “MIC M. catarrhalis A894” value is reported as “≦0.031 mg/l”. `COc1ccc2ncc3c(c2n1)C(CN1CC2C(C1)C2NCc1cc2c(cn1)OCCO2)CO3` (racemic) [Example 33, (2,3-dihydro-[1,4]dioxino[2,3-c]pyridin-7-ylmethyl)-[(1α,5α,6α)-3-((1RS)-8-methoxy-1,2-dihydro-3-oxa-5,9-diaza-cyclopenta[a]naphthalen-1-ylmethyl)-3-aza-bicyclo[3.1.0]hex-6-yl]amine] was tested, and the “MIC M. catarrhalis A894” value was “≦0.031 mg/l”. With `COc1ccc2ncc3c(c2n1)C(CN1[C@@H]2CC[C@H]1C[C@H](NCc1ccc4c(n1)NC(=O)CS4)C2)CO3` (mixture of isomers) [Example 23, 6-{[(3-exo)-8-((1RS)-8-methoxy-1,2-dihydro-3-oxa-5,9-diaza-cyclopenta[a]naphthalen-1-ylmethyl)-8-aza-bicyclo[3.2.1]oct-3-ylamino]-methyl}-4H-pyrido[3,2-b][1,4]thiazin-3-one] the “MIC M. catarrhalis A894” value was “≦0.031 mg/l”. In the case of `COc1ccc2ncc3c(c2n1)C(CN1[C@@H]2CC[C@H]1C[C@H](NCc1cc4c(cn1)OCCO4)C2)CO3` (mixture of isomers) [Example 20, (2,3-dihydro-[1,4]dioxino[2,3-c]pyridin-7-ylmethyl) -[(3-exo)-8-((1RS)-8-methoxy-1,2-dihydro-3-oxa-5,9-diaza-cyclopenta[a]naphthalen-1-ylmethyl)-8-aza-bicyclo[3.2.1]oct-3-yl]-amine], the “MIC M. catarrhalis A894” value is reported as “≦0.031 mg/l”.
